Experimental data: patent US9221838B2, “Inhibitors of AKT activity” (ALMAC DISCOVERY LIMITED, priority 2009, dated 2015)
pIC50: −log10 of the molar value.

Assays:
[1] = biological target: T1, AKT1 (Homo sapiens, UniProt P31749); experiment: AKT Kinase Assay (IMAP fluorescent polarisation) vs AKT1; assay type: biochemical
T1 construct: purchased SignalChem
Outline: (§1)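 Phosphorylation of FAM-Crosstide detected by IMAP binding and fluorescence polarisation (485/528 nm), with IC50 fitted from % inhibition versus vehicle. Compound was incubated 45 min with enzyme, then reacted 1 h at room temperature with ATP and peptide in Tris/MgCl2/DTT buffer. Dose response had fourteen half-log points.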

[2] = tested on: GSK3β phosphorylation; experiment: phosphorylation status of members of the AKT/PI3K pathway via ELISA; assay type: cell-based; settings: measured at 48 h, read-out: inhibition of GSK3β phosphorylation, IC50
[3] = tested on: PC3 and/or LnCaP cell lines; experiment: in vitro cell proliferation assay (Cell Titre Glo); assay type: cell-based; settings: Homo sapiens, read-out: inhibition of proliferation, IC50
Procedure: Testing of the compounds was also performed using in vitro cell proliferation assays:
Cell Titre Glo (Promega) is a highly sensitive homogeneous reagent used to determine the viability of cells. The reagent uses a stable form of luciferase to measure ATP as an output of viability. The luminescent values generated in the assay are directly proportional to the number of viable cells in your assay.
The following materials were used: White, clear bottomed 96 well assay plates (Costar); Cell titre Glo reagents; LnCaP (ECACC) cells grown in RPMI medium (Invitrogen) supplemented with 10 mM HEPES (Invitrogen), 1 mM Sodium pyruvate (Invitrogen), 2 mM L-Glutamine (Invitrogen) and 10% Foetal calf serum (Invitrogen); PC3 (ECACC) cells grown in RPMI medium supplemented with 10% Foetal calf serum (Invitrogen); Trypsin (Invitrogen); PBS (Invitrogen); Biotek Synergy 4 Hybrid Plate reader; 96 well plate shaker (Stuart SSL5); Eppendorf 5414 desk-top centrifuge; Beckman Coulter cell counter Z1 single threshold system.
Prostate cell lines, PC3 and LnCaP, were washed, detached and re-suspended in their respective fresh media. The cells were pelleted by centrifugation (Eppendorf 5414) and spent supernatant discarded. The cells were re-suspended by vortex mixing, counted and seeded into clear bottom white 96 well plates at a density of 5000 cells per well. The cells were incubated (Sanyo) overnight at 37° C. ([…]), and next day treated with increasing concentrations of test compound formulated in fresh medium. The plates were returned to the incubator for 72 hours. […]
The cell viability post compound treatment was determined by the luminescent intensity emitted from the drug treated wells in the plate. In brief, the assay plate was placed in the Biotex Synergy 4 Hybrid plate reader and the luminescence read in each well. The compound treated wells were compared to vehicle treated wells and the % inhibition of cell viability calculated.
The data was analysed using GraphPad Prism, with IC50 values generated using non-linear regression of the data set.

[4] = biological target: T2, AKT3 (Homo sapiens, UniProt Q9Y243); experiment: AKT Kinase Assay (IMAP fluorescent polarisation) vs AKT3; assay type: biochemical
T2 construct: purchased SignalChem
Outline: as §1

[5] = biological target: T3, AKT2 (Homo sapiens, UniProt P31751); experiment: AKT Kinase Assay (IMAP fluorescent polarisation) vs AKT2; assay type: biochemical
T3 construct: purchased SignalChem
Outline: as §1

T3 sequence (P31751 whole entry): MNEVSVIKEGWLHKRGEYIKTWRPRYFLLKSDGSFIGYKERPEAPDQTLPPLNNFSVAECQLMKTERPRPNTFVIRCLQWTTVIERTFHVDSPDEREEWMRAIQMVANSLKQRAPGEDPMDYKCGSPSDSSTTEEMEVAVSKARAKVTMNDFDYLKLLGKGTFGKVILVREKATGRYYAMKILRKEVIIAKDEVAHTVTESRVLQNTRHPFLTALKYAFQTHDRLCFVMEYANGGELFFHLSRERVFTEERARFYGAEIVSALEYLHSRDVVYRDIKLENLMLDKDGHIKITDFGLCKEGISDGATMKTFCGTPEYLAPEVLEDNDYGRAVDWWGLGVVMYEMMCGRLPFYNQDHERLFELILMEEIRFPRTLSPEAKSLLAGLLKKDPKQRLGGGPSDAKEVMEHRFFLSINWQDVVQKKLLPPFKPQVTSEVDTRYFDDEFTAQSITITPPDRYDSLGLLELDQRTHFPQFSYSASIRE
T1 sequence (P31749 whole entry): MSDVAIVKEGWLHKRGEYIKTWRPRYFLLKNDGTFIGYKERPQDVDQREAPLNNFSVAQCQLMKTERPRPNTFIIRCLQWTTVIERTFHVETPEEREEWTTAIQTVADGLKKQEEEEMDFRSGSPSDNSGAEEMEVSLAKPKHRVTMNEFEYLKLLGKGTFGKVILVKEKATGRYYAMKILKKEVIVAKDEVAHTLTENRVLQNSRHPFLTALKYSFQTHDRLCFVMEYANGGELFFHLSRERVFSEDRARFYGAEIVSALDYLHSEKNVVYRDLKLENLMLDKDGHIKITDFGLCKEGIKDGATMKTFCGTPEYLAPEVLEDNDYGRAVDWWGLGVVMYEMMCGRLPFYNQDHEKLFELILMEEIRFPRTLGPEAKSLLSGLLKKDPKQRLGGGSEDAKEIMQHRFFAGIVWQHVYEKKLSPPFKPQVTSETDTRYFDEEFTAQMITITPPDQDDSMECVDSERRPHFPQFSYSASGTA
T2 sequence (Q9Y243 whole entry): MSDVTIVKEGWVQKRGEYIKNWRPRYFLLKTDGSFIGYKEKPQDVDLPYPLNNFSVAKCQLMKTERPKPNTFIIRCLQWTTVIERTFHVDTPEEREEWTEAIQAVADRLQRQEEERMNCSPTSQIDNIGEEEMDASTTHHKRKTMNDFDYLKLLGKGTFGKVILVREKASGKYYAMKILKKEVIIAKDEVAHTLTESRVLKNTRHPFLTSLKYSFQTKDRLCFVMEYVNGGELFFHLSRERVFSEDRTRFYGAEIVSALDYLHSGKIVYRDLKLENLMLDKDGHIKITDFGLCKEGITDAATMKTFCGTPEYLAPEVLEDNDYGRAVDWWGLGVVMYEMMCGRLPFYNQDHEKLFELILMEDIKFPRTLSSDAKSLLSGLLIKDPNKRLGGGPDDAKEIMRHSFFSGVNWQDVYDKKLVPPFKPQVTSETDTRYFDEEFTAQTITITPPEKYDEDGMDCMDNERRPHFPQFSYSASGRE

pIC50 [1]	pIC50 [2]	pIC50 [3]	pIC50 [4]	pIC50 [5]	Compound
≥ 7.00	> 7.00	> 5.00	< 5.00	6.00 to 7.00	NC1(c2ccc(-c3nc4c(cc3-c3ccccc3)-c3n[nH]cc3CC4)cc2)CCC1 [Example 4, 1-(4-(8-phenyl-4,5-dihydro-2H-pyrazolo[3,4-f]quinolin-7-yl)phenyl)cyclobutanamine]
≥ 7.00		> 5.00	5.00 to 6.00	6.00 to 7.00	CN1C(=O)COc2nc(-c3ccc(C4(N)CCC4)cc3)c(-c3ccccc3)cc21 [Example 31, 6-(4-(1-aminocyclobutyl)phenyl)-1-methyl-7-phenyl-1H-pyrido[2,3-b][1,4]oxazin-2(3H)-one]
